Laboratory results taken from patent US20100041704A1, “DERMAL COMPOSITIONS OF SUBSTITUTED AMIDES AND THE USE THEREOF AS MEDICATION FOR PAIN AND PRURITUS” (priority 2007, published 2010).
Counter-ions that a name gives are not always drawn. Values belong to the compound of their own block, whether it stands above or below them.

Tests used:
[1] = tested on: guinea pigs (dermal anesthesia); assay: potentiation study: dermal anesthesia in guinea pigs, pinprick methodology; type: in vivo; conditions: guinea pigs N=8
[2] = concentrations up to 0.075 percent (Mason L et al. 2004); cited from earlier work
[3] = saturation solubility in topical solvents/penetration enhancers; type: physicochemical
Method: Melting point ranges were determined with a capillary apparatus (Stuart) using a heating rate of 1° C./min. Moisture was measured using Karl Fischer titration (Schott TitroLine KF). Solubility was measured by adding an excess of solid to the solvent and allowing this suspension to equilibrate at 19-21° C. for at least 24 hours. […]
Solubility was measured by adding an excess of solid to the solvent and allowing this suspension to equilibrate at 19-21° C. for at least 24 hours. […]

[4] = tested on: New Zealand White rabbits (skin); assay: dermal irritation studies; type: in vivo, rabbit; conditions: DMSO at lower concentrations (<90%) in combination with bupivacaine or ropivacaine
Method: Dermal irritation studies are performed in male and female New Zealand White rabbits (Harlan). This albino rabbit is recommended as the preferred species because of its size, skin permeability and extensive database. The number of animals being used in these studies is consistently increasing as new compositions are tested and previously tested compositions are being retested as references. Within 24 hours before the initiation of the test, fur is removed from the upper and lower dorsal trunks by clipping. Care is taken to avoid abrading the skin and only animals with healthy intact skin are being used. Histamine is used as the pruritic irritant. The compositions to be tested are applied to the skin of the animals for 60 min (±5 min). The new compositions, with or without bupivacaine 5 to 10 percent, are applied on 6-ply gauze pads (4.5 cm×4.5 cm) and held in place with Tegaderm® dressing for the entire exposure duration. After the exposure period, residual test article is removed with water or other appropriate solvent, without altering the existing response or the integrity of the epidermis. Prior to dosing and repeatedly post dosing, dermal irritation is scored for erythema/eschar and edema.

[5] = tested on: nerve ligation model in the rat (L5 and L6 spinal roots of the sciatic nerve); assay: nerve ligation model of neuropathic pain in the rat (tail flick, pinprick allodynia); type: in vivo; conditions: for activity in animal model of neuropathic pain: rat nerve ligation model
[6] = saturation solubility in pentane (model propellant); type: physicochemical; conditions: base
Text: In addition to the solubility experiments shown above, the solubilities of bupivacaine and ropivacaine were also investigated using pentane since this is a low molecular weight hydrocarbon, commonly used to model a GRAS (generally recognized as safe) aerosol propellant such as butane.

[7] = tested on: sciatic nerve; assay: sciatic nerve block in the rat, duration by algesimeter; type: in vivo; conditions: for duration of sensory nerve block / local anesthesia: injection of 0.5% solution, N=10-12
[8] = tested on: mice with diet-induced pruritus; assay: pruritus model: mice fed diet low in Mg2+ and Zn2+, scratching; conditions: mouse, in vivo
[9] = tested on: human leukocytes (buffy coat); assay: inhibition of A23187-stimulated histamine release from human leukocytes; type: cell-based; conditions: A23187 5 μM, 20 min/37° C.
Method: In the present studies, histamine was the marker compound for algesic mediators that are released into the tissues of patients suffering from neuropathic pain. The inhibition of stimulated histamine release from human leukocytes (buffy coat) by test articles was studied. Leukocytes were obtained from healthy volunteers and histamine release was induced by incubation (20 min/37° C.) with the calcium ionophore A23187 (5 μM) in the presence or absence of a test article. Histamine was analyzed by enzyme-immuno assays, using commercially available kits and a microplate reader (MRX, Dynatech).

[10] = ternary solvent mixtures with water as anti-solvent; type: physicochemical; conditions: 1 ml polyethylene glycol + 1 ml ethanol, presence of 0.6 ml water
[11] = in diisopropyl adipate, 19-21° C., at least 24 hours, HPLC
[12] = in ethanol, 19-21° C., at least 24 hours, HPLC
[13] = in hexylene glycol, 19-21° C., at least 24 hours, HPLC
[14] = in isopropyl alcohol, 19-21° C., at least 24 hours, HPLC
[15] = in isopropyl myristate, 19-21° C., at least 24 hours, HPLC
[16] = in propylene glycol, 19-21° C., at least 24 hours, HPLC

SMILES: COc1cc(CNC(=O)CCCC/C=C/C(C)C)ccc1O [capsaicin]
dermal anesthesia (in words) ([1]; capsaicin alone, low dose): too low to result in measurable dermal anesthesia
efficacy of dermal capsaicin [2]: only marginally effective

SMILES: CCCCN1CCCCC1C(=O)Nc1c(C)cccc1C (racemic) [Racemic free base]
Solubility of bupivacaine (% w/w) [3, 11]: 6.2 % w/w
Solubility of bupivacaine (% w/w) [3, 12]: 36.8 % w/w
Solubility of bupivacaine (% w/w) [3, 13]: 17.8 % w/w
Solubility of bupivacaine (% w/w) [3, 14]: 20.5 % w/w
Solubility of bupivacaine (% w/w) [3, 15]: 3.5 % w/w
Solubility of bupivacaine (% w/w) [3, 16]: 4.8 % w/w

SMILES: C[S+](C)[O-] [DMSO, Dimethyl sulfoxide]
dermal irritation of DMSO with local anesthetic [4]: do not cause increased dermal irritation

Solubility of bupivacaine (% w/w) [3, 11]: 2.7 % w/w
Solubility of bupivacaine (% w/w) [3, 12]: 16.5 % w/w
Solubility of bupivacaine (% w/w) [3, 13]: 8.0 % w/w
Solubility of bupivacaine (% w/w) [3, 14]: 8.9 % w/w
Solubility of bupivacaine (% w/w) [3, 15]: 1.6 % w/w
Solubility of bupivacaine (% w/w) [3, 16]: 2.1 % w/w
SMILES: CCCCN1CCCC[C@H]1C(=O)Nc1c(C)cccc1C (single isomer, unassigned) [Isomer free base]

SMILES: CCCCN1CCCCC1C(=O)Nc1c(C)cccc1C (stereo not shown) [bupivacaine, RS—N-(2,6-dimethylphenyl)-1-butylpiperidine-2-carboxamide]
duration of analgesic activity compared with lidocaine ([5]; neuropathic pain model, single administration): longer duration than that offered by lidocaine
pain relief after repeated administrations ([5]; repeated administrations): long-lasting (days not hours) pain relief
anti-allodynic effect (paw withdrawal, pinprick) ([5]; single systemic administration (0.5%), algesimeter set at 5 grams): prolonged anti-allodynic effect
analgesia, tail-flick test method ([5]; single systemic administration of bupivacaine (0.5%) three days after nerve ligation, tail flick in warm (140° F.) water): 100%
duration of dermal anesthesia ([1]; 5% in DMSO/water in a dermal patch, applied for 60 min, pinprick): 60 ± 5 min
Saturation solubility in pentane [6]: >0.1%
dose causing motor nerve blocks after injections ([7]; after injections, doses as low as): ≥ 0.1%
antipruritic activity / safety and efficacy in animal model of pruritus [8]: antipruritic activity
inhibition of stimulated histamine release [9]: significant inhibitory activity
potency on histamine release compared with lidocaine [9]: more potent than lidocaine

SMILES: CCN(CC)CC(=O)Nc1c(C)cccc1C [lidocaine]
activity in animal model of neuropathic pain [5]: had activity
duration of sensory nerve block / local anesthesia ([7]; algesimeter (5 gram), rat): approximately 40 min

SMILES: CCCCN1CCCCC1C(=O)Nc1c(C)cccc1C (stereo not shown) [bupivacaine HCl]
duration of sensory nerve block ([7]; injection of 0.25% solution, algesimeter (5 gram), rat): 70 ± 5 min
duration of sensory nerve block / local anesthesia ([7]; algesimeter (5 gram), rat): 99 ± 7 min

solubility in ternary solvent mixture with water as anti-solvent [10]: dramatically decreased
Solubility, % w/w ([3]; S-ropivacaine free base in diisopropyl adipate, 19-21° C., at least 24 hours): 1.7 % w/w
Solubility, % w/w ([3]; S-ropivacaine free base in ethanol, 19-21° C., at least 24 hours): 10.0 % w/w
Solubility, % w/w ([3]; S-ropivacaine free base in hexylene glycol, 19-21° C., at least 24 hours): 5.1 % w/w
Solubility, % w/w ([3]; S-ropivacaine free base in isopropyl alcohol, 19-21° C., at least 24 hours): 5.2 % w/w
Solubility, % w/w ([3]; S-ropivacaine free base in isopropyl myristate, 19-21° C., at least 24 hours): 0.9 % w/w
Solubility, % w/w ([3]; S-ropivacaine free base in propylene glycol, 19-21° C., at least 24 hours): 1.6 % w/w
solubility compared with bupivacaine free base ([3]; all solvents of Table 6): consistently lower
SMILES: CCCN1CCCC[C@H]1C(=O)Nc1c(C)cccc1C [S-ropivacaine free base]

SMILES: CCCCN1CCCCC1C(=O)Nc1c(C)cccc1C.Cl.O (racemic) [Racemic HCl monohydrate]
Solubility of bupivacaine (% w/w) [3, 12]: 4.3 % w/w
Solubility of bupivacaine (% w/w) [3, 13]: 2.1 % w/w
Solubility of bupivacaine (% w/w) [3, 14]: 0.5 % w/w
Solubility of bupivacaine (% w/w) [3, 16]: 3.2 % w/w

Solubility of bupivacaine (% w/w) ([3]; in ethanol, determined gravimetrically): 3.8-4.4^1 % w/w
SMILES: CCCCN1CCCC[C@H]1C(=O)Nc1c(C)cccc1C (single isomer, unassigned) [Isomer HCl monohydrate]

SMILES: Cc1cccc(C)c1NC(=O)C1CCCCN1C (stereo not shown) [mepivacaine]
duration of sensory nerve block / local anesthesia ([7]; algesimeter (5 gram), rat): approximately 40 min

SMILES: CCCN1CCCCC1C(=O)Nc1c(C)cccc1C (stereo not shown) [ropivacaine, RS—N-(2,6-dimethylphenyl)-1-propylpiperidine-2-carboxamide]
activity in animal model of neuropathic pain [5]: had activity
Saturation solubility in pentane [6]: >0.1%
antipruritic activity / safety and efficacy in animal model of pruritus [8]: antipruritic activity
